Assay results: patent US20260083864A1, “CONTRAST AGENTS FOR USE IN DIAGNOSTIC COMPUTED TOMOGRAPHY IMAGING” (Bayer Aktiengesellschaft, priority 2022, published 2026)
Read-outs that look alike come from different tables or passages of the source.

Experiments:
[1] = Partition coefficient (log P butanol/buffer); type: physicochemical; settings: 1-butanol / 50 mM Tris-HCl, pH 7.4, room temperature
[2] = reference compounds, 1.5 T, 37° C., from Rohrer et al.; cited from earlier work
[3] = reference compounds, 1.5 T, 37° C., bovine plasma instead of human plasma, from Rohrer et al.; cited from earlier work
[4] = test system: freshly isolated rat hepatocytes; experiment: Uptake into freshly isolated rat hepatocytes; settings: for Inhibition Rifampicine: rat hepatocyte uptake, test item and Rifampicine 1:1, each 100 μM; for Uptake rat hepatocytes: 100 μmol Gd/L, 10 min, 37° C., relative to RC1 (Gd-EOB-DTPA)
[5] = Water solubility in aqueous buffer; settings: aqueous buffer 10 mM Tris-HCl, pH 7.4, 20° C.
Method: The solid compounds were added stepwise to the buffer solution. More substance is added once all the suspended material is dissolved until an equilibrium between undissolved and dissolved substance is reached. The suspension was mixed using a shaker (Heidolph Reax 2000) and treated 5 min in an ultrasound bath (Bandelin, Sonorex Super RK255H).

[6] = Complex stability (transmetallation) against Zn2+ in phosphate buffer; settings: 72 hours, 2.5 mM Zn^2+, 26 mM phosphate buffer, 37° C., pH 7.4
Source text: If test compounds are instable under these conditions, transmetallation during this test would lead to the formation of the Zn^2+ complex of the test item, while Gd^3+ is released and precipitated as highly insoluble GdPO4.

[7] = Relaxivity measurements at 1.41 T in water; type: physicochemical; settings: 37° C., normalized to Gd
Outline: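 T1 by inversion recovery and T2 by CPMG at 1.41 T (60 MHz), 37° C, relaxation delay ≥5×T1. Three Gd concentrations between 0.05 and 2 mM; relaxivities derived from measured relaxation rates in water.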

[8] = Relaxivity measurements at 1.41 T in human plasma; type: physicochemical; settings: 37° C., normalized to Gd
Outline: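 T1 determined by inversion recovery (8 inversion-time steps) and T2 by CPMG sequence, both with relaxation delay ≥5×T1. Each relaxivity used three Gd concentrations between 0.05 and 2 mM. Relaxivities were derived from relaxation rates measured in water and plasma.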

OATP1B1 = molecular target: T1, OATP1B1 (Homo sapiens, UniProt Q9Y6L6); experiment: Uptake into stable transfected OATP1B1 HEK 293 cells; type: cell-based; settings: for Uptake into OATP1B1-HEK 293 cells: 40 min incubation, relative to RC1 (Gd-EOB-DTPA); for Inhibition Rifampicine: uptake into OATP1B1-HEK 293 cells
T1 sequence (Q9Y6L6 1-691): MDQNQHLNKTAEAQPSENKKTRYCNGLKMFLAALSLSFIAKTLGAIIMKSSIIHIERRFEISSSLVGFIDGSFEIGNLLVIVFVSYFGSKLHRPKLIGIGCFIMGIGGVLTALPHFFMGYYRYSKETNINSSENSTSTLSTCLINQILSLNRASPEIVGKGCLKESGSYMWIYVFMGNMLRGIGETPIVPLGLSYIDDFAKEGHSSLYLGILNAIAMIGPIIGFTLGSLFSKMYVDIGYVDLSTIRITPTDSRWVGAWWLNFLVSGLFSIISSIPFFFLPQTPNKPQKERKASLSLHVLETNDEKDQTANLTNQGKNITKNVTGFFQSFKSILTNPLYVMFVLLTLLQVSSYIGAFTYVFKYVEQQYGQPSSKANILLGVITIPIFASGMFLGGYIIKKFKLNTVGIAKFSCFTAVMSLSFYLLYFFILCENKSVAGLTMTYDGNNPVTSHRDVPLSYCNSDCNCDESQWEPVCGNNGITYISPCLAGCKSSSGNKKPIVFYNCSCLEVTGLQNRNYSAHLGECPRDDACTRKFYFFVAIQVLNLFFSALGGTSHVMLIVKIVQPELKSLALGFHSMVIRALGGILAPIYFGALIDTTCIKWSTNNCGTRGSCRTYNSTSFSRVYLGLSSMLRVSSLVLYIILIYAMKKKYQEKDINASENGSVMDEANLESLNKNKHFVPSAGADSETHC
Outline: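 Stably transfected OATP1B1 HEK293 cells incubated 40 min without shaking with test item at 100 µM final in transport buffer, in triplicate. Cells then washed with cold PBS; gadoxetate run on the same plate as reference.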

OATP1B3 = molecular target: T2, OATP1B3 (Homo sapiens, UniProt Q9NPD5); experiment: Uptake into stable transfected OATP1B3 HEK 293 cells; type: cell-based; settings: for Uptake into OATP1B3-HEK 293 cells: 40 min incubation, relative to RC1 (Gd-EOB-DTPA); for Inhibition Rifampicine: uptake into OATP1B3-HEK 293 cells
T2 sequence (Q9NPD5 1-702): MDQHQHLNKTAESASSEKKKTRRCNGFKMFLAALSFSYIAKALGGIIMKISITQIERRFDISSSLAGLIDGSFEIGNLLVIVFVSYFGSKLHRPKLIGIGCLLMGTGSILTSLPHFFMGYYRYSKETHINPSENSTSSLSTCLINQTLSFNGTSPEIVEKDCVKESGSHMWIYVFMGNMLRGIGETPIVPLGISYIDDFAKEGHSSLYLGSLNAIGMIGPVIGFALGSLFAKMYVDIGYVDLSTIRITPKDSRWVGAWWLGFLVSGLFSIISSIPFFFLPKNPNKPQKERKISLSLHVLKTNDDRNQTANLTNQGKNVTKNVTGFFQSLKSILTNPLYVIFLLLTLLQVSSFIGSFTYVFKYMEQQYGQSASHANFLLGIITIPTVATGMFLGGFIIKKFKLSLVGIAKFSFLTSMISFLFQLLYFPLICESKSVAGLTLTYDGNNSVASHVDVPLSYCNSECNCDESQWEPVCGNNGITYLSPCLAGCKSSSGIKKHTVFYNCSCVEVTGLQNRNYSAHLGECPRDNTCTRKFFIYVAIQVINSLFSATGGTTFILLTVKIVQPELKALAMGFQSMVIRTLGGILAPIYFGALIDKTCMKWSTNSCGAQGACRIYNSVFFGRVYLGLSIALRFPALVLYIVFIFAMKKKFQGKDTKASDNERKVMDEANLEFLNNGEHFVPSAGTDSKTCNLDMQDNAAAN
Outline: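 HEK 293 cells stably transfected with human OATP1B3 were incubated for 40 min with test items at 100 μM final in transport buffer, in triplicate, then washed with cold PBS. Gadoxetate (Gd-EOB-DTPA) served as the reference standard on the same plate.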

[9] = of the administered dose, literature; cited from earlier work

| Compound | Log P (partition coefficient butanol/buffer) [1] | r1 water [2] | r1 plasma (r1 human plasma) [3] | Inhibition Rifampicine [4] | Solubility [5] | Transmetallation stability [6] | r1 water [7] | r1 human plasma [8] | Uptake into OATP1B1-HEK 293 cells (OATP1B1) | Inhibition Rifampicine (OATP1B1) | Uptake into OATP1B3-HEK 293 cells (OATP1B3) | Inhibition Rifampicine (OATP1B3) | Uptake rat hepatocytes [4] | Secreted / excreted into the bile [9] |
| --- | --- | --- | --- | --- | --- | --- | --- | --- | --- | --- | --- | --- | --- | --- |
| O=C([O-])CN1CCN(CC(=O)[O-])CCN([C@H](CO)[C@H](O)CO)CCN(CC(=O)[O-])CC1.[Gd+3] (racemic) [RC3, gadobutrol, reference compound] | −2.22 | 3.3 L/mmol/s | 5.2 L/mmol/s | 0 % inhibition | – | – | – | – | – | – | – | – | – | – |
| CCOCCOc1ccc(CC(C(=O)O)N2CCN(CC(=O)[O-])CCN(C(COC)C(=O)[O-])CCN(CC(=O)[O-])CC2)cc1.[Gd+3] (stereo not drawn) [Example 38, gadolinium 2-[7-{1-carboxy-2-[4-(2-ethoxyethoxy)phenyl]ethyl}-4,10-bis(carboxylatomethyl)-1,4,7,10-tetraazacyclododecan-1-yl]-3-methoxypropanoate] | −1.41 | – | – | 94 % inhibition | >103 mM | 97% | 5.6 L/mmol/s | 7.5 L/mmol/s | 137 % of RC1 | 65 % inhibition | 24 % of RC1 | 94 % inhibition | 62 % of RC1 | – |
| CCOCCOCCOc1ccc(CC(C(=O)[O-])N2CCN(CC(=O)[O-])CCN(C(CC)C(=O)O)CCN(CC(=O)[O-])CC2)cc1.[Gd+3] (stereo not drawn) [Example 43, gadolinium-2-{4,10-bis(carboxylatomethyl)-7-[1-carboxypropyl]-1,4,7,10-tetraazacyclododecan-1-yl}-3-{4-[2-(2-ethoxyethoxy)ethoxy]phenyl}propanoate] | −1.19 | – | – | 97 % inhibition | >209 mM | 102% | 4.8 L/mmol/s | 6.9 L/mmol/s | 122 % of RC1 | 62 % inhibition | 111 % of RC1 | 99 % inhibition | 90 % of RC1 | – |
| COCC(C(=O)O)N1CCN(CC(=O)[O-])CCN(C(Cc2ccc(OCC(F)(F)C(F)F)cc2)C(=O)[O-])CCN(CC(=O)[O-])CC1.[Gd+3] (stereo not drawn) [Example 45, gadolinium-2-{4,10-bis(carboxylatomethyl)-7-[1-carboxy-2-methoxyethyl]-1,4,7,10-tetraazacyclododecan-1-yl}-3-[4-(2,2,3,3-tetrafluoropropoxy)phenyl]propanoate] | −0.36 | – | – | 82 % inhibition | >63 mM | 100% | 4.5 L/mmol/s | 11.4 L/mmol/s | 492 % of RC1 | 95 % inhibition | 106 % of RC1 | 98 % inhibition | 68 % of RC1 | – |
| O=C([O-])CN1CCN(CC(=O)[O-])CCN(C(Cc2ccc(OCC(F)(F)C(F)F)cc2)C(=O)O)CCN(CC(=O)[O-])CC1.[Gd+3] (stereo not drawn) [Example 46, gadolinium 2,2′,2″-(10-{1-carboxy-2-[4-(2,2,3,3-tetrafluoropropoxy)phenyl]ethyl}-1,4,7,10-tetraazacyclododecane-1,4,7-triyl)triacetate] | −0.57 | – | – | 90 % inhibition | >263 mM | 101% | 3.5 L/mmol/s | 10.8 L/mmol/s | 356 % of RC1 | 95 % inhibition | 43 % of RC1 | 97 % inhibition | 106 % of RC1 | – |
| O=C([O-])CN(CCN(CC(=O)[O-])CC(=O)[O-])CCN(CC(=O)[O-])C(COCc1ccccc1)C(=O)[O-].[Gd+3].[H+].[H+] (stereo not drawn) [Gd-BOPTA, gadobenic acid] | – | – | – | – | – | – | – | – | – | – | – | – | – | 3-to-5% |
| CCOc1ccc(C[C@@H](CN(CCN(CC(=O)[O-])CC(=O)[O-])CC(=O)[O-])N(CC(=O)[O-])CC(=O)[O-])cc1.[Gd+3].[H+].[H+] [Gd-EOB-DTPA, gadoxetic acid] | – | – | – | – | – | – | – | – | – | – | – | – | – | up to 50% |
| O=C([O-])CN(CCN(CC(=O)[O-])CC(=O)[O-])CCN(CC(=O)[O-])C(COCc1ccccc1)C(=O)[O-].[Gd+3].[H+].[H+] (stereo not drawn) [RC2, gadobenic acid, reference compound] | −2.07 | 3.3 L/mmol/s | 4.1 L/mmol/s | 79 % inhibition | – | 14% | – | – | 31 % of RC1 | 61 % inhibition | 4 % of RC1 | 87 % inhibition | 9 % of RC1 | – |
